How the values were obtained:
[1] = Selectivity ratio of Ki for bovine recombinant eNOS to Ki for rat recombinant nNOS
[2] = Selectivity ratio of Ki for mouse recombinant iNOS to Ki for rat recombinant nNOS
Nitric oxide synthase 1 = Nitric oxide synthase 1 (Rattus norvegicus, UniProt P29476)
Caco-2 = settings: human, caco-2, 2 h, 10 µM
[3] = molecular target: T1, Nitric oxide synthase, inducible (Mus musculus, UniProt P29477)
T1 sequence (P29477 whole entry): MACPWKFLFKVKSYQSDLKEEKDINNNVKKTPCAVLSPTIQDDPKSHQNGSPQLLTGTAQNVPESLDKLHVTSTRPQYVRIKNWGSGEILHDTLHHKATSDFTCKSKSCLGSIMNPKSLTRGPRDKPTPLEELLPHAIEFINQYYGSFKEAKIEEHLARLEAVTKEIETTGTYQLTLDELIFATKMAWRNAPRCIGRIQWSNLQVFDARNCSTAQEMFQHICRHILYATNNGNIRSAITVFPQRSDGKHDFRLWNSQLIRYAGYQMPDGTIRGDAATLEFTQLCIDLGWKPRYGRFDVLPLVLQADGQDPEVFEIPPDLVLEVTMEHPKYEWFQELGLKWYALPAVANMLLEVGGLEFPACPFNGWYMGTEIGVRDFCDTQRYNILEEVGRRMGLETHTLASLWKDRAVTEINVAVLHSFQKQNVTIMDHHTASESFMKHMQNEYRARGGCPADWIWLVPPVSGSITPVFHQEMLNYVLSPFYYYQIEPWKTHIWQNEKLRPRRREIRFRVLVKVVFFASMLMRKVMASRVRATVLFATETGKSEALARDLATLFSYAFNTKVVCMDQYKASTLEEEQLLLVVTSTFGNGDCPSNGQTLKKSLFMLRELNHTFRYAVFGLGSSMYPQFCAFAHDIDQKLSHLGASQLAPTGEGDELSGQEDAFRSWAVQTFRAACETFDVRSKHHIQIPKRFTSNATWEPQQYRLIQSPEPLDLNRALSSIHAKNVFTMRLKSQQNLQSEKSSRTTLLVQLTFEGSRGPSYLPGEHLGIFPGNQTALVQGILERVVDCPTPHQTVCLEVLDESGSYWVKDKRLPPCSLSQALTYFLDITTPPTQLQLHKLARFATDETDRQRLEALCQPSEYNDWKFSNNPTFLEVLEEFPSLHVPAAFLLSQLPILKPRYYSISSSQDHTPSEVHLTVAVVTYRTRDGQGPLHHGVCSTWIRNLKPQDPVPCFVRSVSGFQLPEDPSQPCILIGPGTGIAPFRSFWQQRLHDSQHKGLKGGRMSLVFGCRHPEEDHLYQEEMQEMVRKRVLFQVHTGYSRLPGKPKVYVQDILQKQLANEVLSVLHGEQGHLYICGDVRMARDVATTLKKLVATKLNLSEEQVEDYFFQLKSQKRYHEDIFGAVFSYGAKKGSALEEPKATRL

Nitric oxide synthase 3 = molecular target: T2, Nitric oxide synthase 3 (Bos taurus, UniProt P29473)
T2 sequence (P29473 whole entry): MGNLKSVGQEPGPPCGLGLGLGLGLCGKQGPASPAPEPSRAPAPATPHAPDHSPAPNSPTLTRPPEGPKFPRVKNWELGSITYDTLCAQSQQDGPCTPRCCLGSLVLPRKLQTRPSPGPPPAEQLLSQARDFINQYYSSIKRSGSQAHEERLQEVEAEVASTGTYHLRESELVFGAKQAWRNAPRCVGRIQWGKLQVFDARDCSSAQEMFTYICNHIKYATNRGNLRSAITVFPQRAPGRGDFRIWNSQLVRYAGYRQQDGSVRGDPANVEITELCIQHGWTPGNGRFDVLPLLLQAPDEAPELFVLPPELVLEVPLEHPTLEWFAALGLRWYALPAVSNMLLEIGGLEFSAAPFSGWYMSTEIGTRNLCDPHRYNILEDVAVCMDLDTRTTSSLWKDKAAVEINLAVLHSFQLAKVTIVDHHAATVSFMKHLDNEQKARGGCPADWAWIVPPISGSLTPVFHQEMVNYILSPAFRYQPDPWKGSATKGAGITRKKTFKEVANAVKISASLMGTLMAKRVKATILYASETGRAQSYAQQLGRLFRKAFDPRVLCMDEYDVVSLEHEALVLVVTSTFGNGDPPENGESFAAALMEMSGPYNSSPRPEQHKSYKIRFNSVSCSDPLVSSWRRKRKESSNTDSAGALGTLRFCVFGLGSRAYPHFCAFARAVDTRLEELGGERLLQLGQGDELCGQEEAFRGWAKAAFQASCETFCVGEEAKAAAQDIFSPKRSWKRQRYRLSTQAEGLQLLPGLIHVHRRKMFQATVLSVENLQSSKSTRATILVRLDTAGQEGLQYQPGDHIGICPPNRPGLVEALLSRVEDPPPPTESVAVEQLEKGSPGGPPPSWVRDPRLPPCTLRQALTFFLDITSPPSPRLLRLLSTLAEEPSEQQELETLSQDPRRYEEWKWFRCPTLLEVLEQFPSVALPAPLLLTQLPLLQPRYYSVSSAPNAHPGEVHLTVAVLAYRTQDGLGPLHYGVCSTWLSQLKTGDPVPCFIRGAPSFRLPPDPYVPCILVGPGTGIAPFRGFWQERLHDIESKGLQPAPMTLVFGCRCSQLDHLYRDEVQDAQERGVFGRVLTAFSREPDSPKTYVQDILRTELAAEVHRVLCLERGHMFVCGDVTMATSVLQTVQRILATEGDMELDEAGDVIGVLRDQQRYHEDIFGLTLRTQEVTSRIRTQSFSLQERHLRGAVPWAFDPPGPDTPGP

Chain of Nitric oxide synthase 1 (P29476 whole entry): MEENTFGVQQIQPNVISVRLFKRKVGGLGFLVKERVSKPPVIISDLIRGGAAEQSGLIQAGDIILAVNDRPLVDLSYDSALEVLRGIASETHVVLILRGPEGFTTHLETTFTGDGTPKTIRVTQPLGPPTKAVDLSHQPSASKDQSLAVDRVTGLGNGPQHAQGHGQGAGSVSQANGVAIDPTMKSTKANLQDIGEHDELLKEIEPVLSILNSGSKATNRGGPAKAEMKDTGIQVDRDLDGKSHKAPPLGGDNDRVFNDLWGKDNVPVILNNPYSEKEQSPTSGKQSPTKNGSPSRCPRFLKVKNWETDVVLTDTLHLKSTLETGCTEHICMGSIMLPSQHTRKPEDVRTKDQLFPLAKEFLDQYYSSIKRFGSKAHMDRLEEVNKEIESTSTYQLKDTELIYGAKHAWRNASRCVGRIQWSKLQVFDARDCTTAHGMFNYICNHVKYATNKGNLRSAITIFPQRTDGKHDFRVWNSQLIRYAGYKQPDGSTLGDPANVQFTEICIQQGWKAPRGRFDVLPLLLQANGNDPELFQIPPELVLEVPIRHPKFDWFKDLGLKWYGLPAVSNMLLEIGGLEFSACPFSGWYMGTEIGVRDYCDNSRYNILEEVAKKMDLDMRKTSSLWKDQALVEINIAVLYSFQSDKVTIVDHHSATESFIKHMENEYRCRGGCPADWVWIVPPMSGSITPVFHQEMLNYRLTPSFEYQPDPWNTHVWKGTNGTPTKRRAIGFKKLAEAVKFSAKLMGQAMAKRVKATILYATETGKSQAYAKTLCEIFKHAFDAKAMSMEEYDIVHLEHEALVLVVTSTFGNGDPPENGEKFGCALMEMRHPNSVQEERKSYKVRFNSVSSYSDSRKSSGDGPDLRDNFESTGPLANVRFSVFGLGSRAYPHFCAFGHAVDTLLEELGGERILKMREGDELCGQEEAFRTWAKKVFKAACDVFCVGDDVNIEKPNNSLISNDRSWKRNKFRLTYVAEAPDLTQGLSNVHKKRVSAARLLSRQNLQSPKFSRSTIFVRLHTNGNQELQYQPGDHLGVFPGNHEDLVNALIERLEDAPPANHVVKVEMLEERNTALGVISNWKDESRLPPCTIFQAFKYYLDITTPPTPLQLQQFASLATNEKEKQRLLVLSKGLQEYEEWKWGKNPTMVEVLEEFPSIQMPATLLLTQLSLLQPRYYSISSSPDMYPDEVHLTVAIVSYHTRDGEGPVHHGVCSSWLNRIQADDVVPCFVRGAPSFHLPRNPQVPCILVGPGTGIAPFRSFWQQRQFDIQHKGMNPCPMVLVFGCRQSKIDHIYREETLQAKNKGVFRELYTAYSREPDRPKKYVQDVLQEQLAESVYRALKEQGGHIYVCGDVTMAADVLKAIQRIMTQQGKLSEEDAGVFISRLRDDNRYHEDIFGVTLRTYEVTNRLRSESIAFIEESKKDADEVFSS

Compound | Ratio Ki [1] | Ratio Ki [2] | Ki (Nitric oxide synthase 1) [µM] | further results
Nc1ccc2ccc(CNCCc3cccc(F)c3)cc2n1 | 6.2 | 124 | – | –
Cl.Cl.Cl.N=C(Nc1ccc(CCNCc2cccc(Cl)c2)cc1)c1cccs1 | – | – | – | IC50 (Nitric oxide synthase 1): 0.035 µM; Drug recovery (Caco-2): 78%
Nc1ccc2ccc(CNCCCc3cccc(F)c3)cc2n1 | 62 | 538 | 0.06 | Ki [3]: 32.3 µM; Ki (Nitric oxide synthase 3): 3.69 µM
Nc1ccc2ccc(CCNCCc3ccc(F)cc3)cc2n1 | 37 | 280 | – | –
Nc1ccc2cc(CNCCc3cccc(F)c3)ccc2n1 | – | – | > 5.7 | –
Nc1ccc2ccc(CCNCc3cccc(F)c3)cc2n1 | 30 | 97 | – | –

More lines, main results first:

Ratio Ki [1] | Ratio Ki [2] | Ki (Nitric oxide synthase 1) [µM] | Compound | further results
– | – | > 5.7 | Nc1ccc2cc(CCNCc3cccc(F)c3)ccc2n1 | –
– | – | > 5.7 | Nc1ccc2cc(CCNCCc3cccc(F)c3)ccc2n1 | –
47 | 91 | – | Nc1ccc2ccc(CCNCCc3ccc(Cl)cc3)cc2n1 | –
– | – | 4.37 | Nc1ccc2cc(CCNCCCc3cccc(F)c3)ccc2n1 | –
